Measured values from US10107816B2, “G-protein coupled receptor-associated diagnostics and therapeutics for B-cell chronic lymphocytic leukemia” (THE REGENTS OF THE UNIVERSITY OF CALIFORNIA, priority 2013, dated 2018).
“Also recorded” adds a separate entry of the source. Where no end group is shown, it is not given here.

How the values were obtained:
CLL cells [1] = assay: Assay of cellular apoptosis (annexin V/PI flow cytometry) in CLL cells; format: cell-based, human; settings: for apoptosis in combination with IR284: with PDE inhibitor IR284 (100 nM), compared to IR284 alone
Experimental: (§1) FIG. 7 illustrates apoptosis of CLL cells (data from Aggressive and Indolent CLL cells), left panel, and normal B-cells (n=3), right panel, in response to 1 μM VIP+100 nM IR284. Statistical significance, determined by Student's t-test, is shown (*=P<0.05) compared to cells treated only with 100 nM IR284.
(§2) Cycle thresholds (lower value denotes higher expression) normalized to 28S. Statistical significance was determined by Student's t-test and is depicted by (***) for P<0.001 compared to normal. […] Statistical significance was determined by paired t test with (*) P<0.05 compared to IR284 alone.
(§3) Flow cytometry was used to detect annexin V/fluorescein isothiocyanate (FITC) and propidium iodide (PI) staining to determine the apoptotic population of treated cells. CLL-cells or normal PBMC (1,000,000/ml) in […]+10% FBS were incubated for 48 hr in standard culture conditions with or without drugs and then assayed for annexinV/PI staining per manufacturer's protocol using a FACScan (Becton Dickinson Biosciences, San Jose, Calif.) flow cytometer.

CLL cells [2] = assay: cAMP accumulation assay (cAMP radioimmunoassay); format: cell-based, human; settings: aggressive CLL cells (n=8); 1 μM VIP + 100 nM IR284, relative to 100 nM IR284 alone; P<0.05
Experimental: The results are expressed relative to cAMP levels in cells treated only with 100 nM IR284, a PDE4/7 inhibitor. Statistical significance was determined by paired t test and is shown (*=P<0.05) compared to cells treated only with IR284.
as §2
One million CLL-cells or normal PBMC/ml in […] buffer+10% FBS were plated in a 12-well cell culture plate and incubated for 20 min at 37° C. in air plus 5% CO2 with a dual PDE4/7 inhibitor (IR284). VIP or ACTH were then added to the 12-well culture plate and incubated for 10 min at 37° C. in air plus 5% CO2. The cells were then centrifuged at 1200 rpm for 5 min at 4° C. The media was aspirated and 50 μl of 7.5% trichloroacetic acid (TCA) was added to each cell pellet to release cAMP from the cells. The TCA-suspended sample was diluted in 1 ml 10 mM sodium acetate and acetylated with 20 ul triethylamine and 10 ul acetic anhydride. The competitive binding assay consists of 50 μl of diluted, acetylated sample, 25 μl AMP antibody and 25 μl ^125I-labeled cAMP (Perkin Elmer). […]

normal B-cells = assay: Assay of cellular apoptosis (annexin V/PI flow cytometry) in normal B-cells; format: cell-based, human; settings: normal B-cells (n=3)
Experimental: as §1, §3

[3] = system: NK.tert bone marrow-derived stromal cells; assay: Stromal cell proliferation ([3H] thymidine) with conditioned media from indolent CLL cultures; format: cell-based, human; settings: conditioned media from indolent CLL cells incubated 24 hr with IR284 (100 nM) or VIP
Experimental: Mononuclear cells derived from the blood of Indolent CLL patients were grown in tissue culture media (RPMI 1640+10% Heat-Inactivated Fetal Bovine Serum) and incubated for 24 hr in the absence of any drug (“untreated CLL”), in the presence of the phosphodiesterase 4/7 inhibitor IR284 (100 nM) or the VIPR agonist VIP […]. In the 24 hr incubation period products excreted from the cells in response to the treatments accumulate in the media, which is called “conditioned media” (CM). CM was harvested from the cell cultures by subjecting them to centrifugation at 233 rcf for 10 minutes at 4° C. to pellet cells and debris. The liquid portion was removed and used as CM. To assess the impact of CM from the indolent CLL cultures upon the proliferation of bone marrow-derived stromal cells (which make up the supportive microenvironment of CLL in vivo), CM was added to NK.tert bone marrow-derived stromal cells along with [3H] thymidine to assess DNA synthesis/cell proliferation

CLL cells [4] = assay: Spontaneous apoptosis of CLL cells (Annexin V surface staining); format: cell-based, human
Source text: FIG. 12 illustrates that the peptide hormone insulin-like peptide 3 (INSL3) protects CLL cells from spontaneous apoptosis.

LGR8 [5] = target: T1, LGR8 (Homo sapiens, UniProt Q8WXD0); settings: recombinant LGR8 in 293T cells; cited from earlier work
T1 construct: expressed in transfected cells; host or cells: 293T cells
T1 sequence (Q8WXD0 whole entry): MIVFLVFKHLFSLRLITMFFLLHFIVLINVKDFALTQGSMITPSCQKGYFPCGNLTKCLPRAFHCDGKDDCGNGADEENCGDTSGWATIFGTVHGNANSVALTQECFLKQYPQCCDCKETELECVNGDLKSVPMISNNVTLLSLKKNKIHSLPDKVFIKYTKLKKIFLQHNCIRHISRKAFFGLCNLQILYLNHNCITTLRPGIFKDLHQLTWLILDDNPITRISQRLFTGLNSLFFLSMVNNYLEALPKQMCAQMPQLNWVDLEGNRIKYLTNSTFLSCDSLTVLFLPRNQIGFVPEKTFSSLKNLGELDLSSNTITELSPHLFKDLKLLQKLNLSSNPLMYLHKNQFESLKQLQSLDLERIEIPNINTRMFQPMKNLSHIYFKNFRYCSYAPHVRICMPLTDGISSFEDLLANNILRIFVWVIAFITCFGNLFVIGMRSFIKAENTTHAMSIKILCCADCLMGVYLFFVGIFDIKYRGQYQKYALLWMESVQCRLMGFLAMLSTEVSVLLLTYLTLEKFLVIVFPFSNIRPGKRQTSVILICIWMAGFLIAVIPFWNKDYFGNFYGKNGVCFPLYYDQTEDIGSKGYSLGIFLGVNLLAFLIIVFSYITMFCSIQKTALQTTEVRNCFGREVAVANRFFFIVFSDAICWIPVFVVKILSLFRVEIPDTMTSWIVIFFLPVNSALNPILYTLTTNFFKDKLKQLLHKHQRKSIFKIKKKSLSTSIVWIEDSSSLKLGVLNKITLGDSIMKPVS

LGR8 [6] = settings: germ cells; via inhibitory G protein Gi; cited from earlier work
[7] = system: arrested oocytes in preovulatory follicles; settings: in vitro and in vivo; cited from earlier work
male germ cell = settings: in vivo; cited from earlier work
[8] = indolent CLL cells, with or without VIP or ACTH, with a phosphodiesterase inhibitor

Molecule	apoptosis (CLL cells [1]; aggressive CLL cells, 48 hr)	apoptosis in combination with IR284 (CLL cells [1]; aggressive CLL cells)	apoptosis (CLL cells [1]; [8])	proliferation of stromal cells (DNA synthesis) [3]	other results
ACTH: a melanocortin 2 receptor [MC2R] agonist, purchased from GenWay (SYSMEHFRWGKPVGKKRRPVKVYPNGAEDESAEAFPLEF; Corticotropin; UniProt P01189 138-176, looked up)	promote apoptosis	increase apoptosis	not indolent CLL	–	–
VIP: vasoactive intestinal peptide receptor agonist, purchased from Tocris Bioscience (HSDAVFTDNYTRLRKQMAVKKYLNSILN; ends and bridges not checked; UniProt P01282 125-152, looked up)	increases apoptosis; also recorded: promote apoptosis	significantly enhanced; also recorded: increase apoptosis	not indolent CLL	suppressed proliferation	cAMP accumulation (CLL cells [2]): significantly enhanced; apoptosis (CLL cells [1]; CLL cells, P<0.05, n=3): induced apoptosis; apoptosis (normal B-cells): does not promote apoptosis
COc1ccc(C2=NN(C3CCN(C(=O)N4CCOCC4)CC3)C(=O)C3CC=CCC23)cc1Cl (stereo not shown) [IR284, (4-(3-chloro-4-methoxyphenyl)-2-(1-morpholine-4-carbonyl)piperadin-4-yl)-4a, 5,8,8a-tetrahydrophthalazin-1(2H)-one]	–	–	–	suppressed proliferation	–
INSL3: peptide hormone insulin-like peptide 3, LGR8 agonist (peptide, UniProt P51460 21-55; P51460 106-131, looked up) Insulin-like 3 B chain: LGPAPTPEMREKLCGHHFVRALVRVCGGPRWSTEA Insulin-like 3 A chain: AAATNPARYCCLSGCTQQDLLTLCPY	–	–	–	–	protection from apoptosis (CLL cells [4]): protects CLL cells from programmed cell death; adenylyl cyclase activation / intracellular cAMP (LGR8 [5]): increases accumulation of intracellular cAMP; cAMP production (LGR8 [6]): decreases in cAMP production; meiotic progression of arrested oocytes [7]: initiates meiotic progression; male germ cell apoptosis (male germ cell): suppresses male germ cell apoptosis
